Columns and labels:
[1] = Inhibition of Bacillus pasteurii urease; parameters: species or system Sporosarcina pasteurii
[2] = Inhibition of ECE
[3] = target: T1, Angiotensin-converting enzyme (Homo sapiens, UniProt P12821); assay: Inhibition of human ACE C-terminal domain expressed in CHO cells after 90 mins by fluorescence assay; assay type: cell-based
[4] = target: T1, Angiotensin-converting enzyme; assay: Inhibition of human ACE N-terminal domain expressed in CHO cells after 90 mins by fluorescence assay; assay type: cell-based
[5] = Total body clearance in healthy human at 10 mg dosed as single daily dose; assay type: ADME, organism-based; conditions: in vivo
[6] = target: T1, Angiotensin-converting enzyme; assay: Inhibition of ACE
[7] = Terminal half life in healthy human at 10 mg dosed as single daily dose; assay type: ADME, organism-based; conditions: in vivo, read-out: beta t1/2 (converted)
[8] = species on record: Rattus norvegicus; assay: Inhibition of bone resorption in rat; assay type: functional; conditions: read-out: MED
[9] = target: T2, Farnesyl pyrophosphate synthase (Homo sapiens, UniProt P14324)
T2 sequence (P14324 whole entry): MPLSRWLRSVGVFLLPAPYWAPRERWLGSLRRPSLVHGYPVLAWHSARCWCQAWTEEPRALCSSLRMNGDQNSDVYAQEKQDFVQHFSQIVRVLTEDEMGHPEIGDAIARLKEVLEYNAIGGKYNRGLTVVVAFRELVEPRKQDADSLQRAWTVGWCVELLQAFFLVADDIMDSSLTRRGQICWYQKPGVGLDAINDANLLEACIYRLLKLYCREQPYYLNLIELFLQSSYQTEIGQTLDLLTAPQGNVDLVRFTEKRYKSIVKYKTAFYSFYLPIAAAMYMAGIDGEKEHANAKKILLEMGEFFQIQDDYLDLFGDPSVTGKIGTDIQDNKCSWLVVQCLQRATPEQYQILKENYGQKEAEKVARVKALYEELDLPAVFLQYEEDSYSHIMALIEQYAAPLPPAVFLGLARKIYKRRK

[10] = target: Aminopeptidase N (Homo sapiens, UniProt P15144); assay: Inhibition of APN
Aminopeptidase N, sequence (P15144 whole entry): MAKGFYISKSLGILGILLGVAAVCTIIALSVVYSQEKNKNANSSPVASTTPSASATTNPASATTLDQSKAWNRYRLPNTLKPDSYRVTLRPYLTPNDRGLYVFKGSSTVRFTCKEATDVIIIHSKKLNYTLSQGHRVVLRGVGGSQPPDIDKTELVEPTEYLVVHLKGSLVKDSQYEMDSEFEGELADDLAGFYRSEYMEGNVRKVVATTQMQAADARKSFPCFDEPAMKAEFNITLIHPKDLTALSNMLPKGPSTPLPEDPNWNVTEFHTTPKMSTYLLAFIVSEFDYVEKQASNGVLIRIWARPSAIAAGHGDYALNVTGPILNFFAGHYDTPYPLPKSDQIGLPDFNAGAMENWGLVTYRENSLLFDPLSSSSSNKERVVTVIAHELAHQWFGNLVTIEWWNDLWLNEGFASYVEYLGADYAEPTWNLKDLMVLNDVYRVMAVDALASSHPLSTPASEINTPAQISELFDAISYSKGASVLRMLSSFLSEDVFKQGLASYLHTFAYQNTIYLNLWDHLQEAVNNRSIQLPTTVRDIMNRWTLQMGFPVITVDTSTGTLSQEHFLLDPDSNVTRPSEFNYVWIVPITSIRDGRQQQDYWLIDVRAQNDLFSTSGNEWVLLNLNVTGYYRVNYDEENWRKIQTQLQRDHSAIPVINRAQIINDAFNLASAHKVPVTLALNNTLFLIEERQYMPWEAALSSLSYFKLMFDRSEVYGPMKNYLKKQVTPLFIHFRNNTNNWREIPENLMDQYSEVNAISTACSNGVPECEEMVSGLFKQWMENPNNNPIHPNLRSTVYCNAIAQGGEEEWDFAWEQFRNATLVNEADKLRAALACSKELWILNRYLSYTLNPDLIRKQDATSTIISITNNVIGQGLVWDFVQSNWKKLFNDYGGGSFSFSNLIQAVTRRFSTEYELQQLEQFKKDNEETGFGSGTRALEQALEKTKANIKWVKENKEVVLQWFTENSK

[11] = target: Cytosol aminopeptidase (Homo sapiens, UniProt P28838); assay: Inhibition of LAP
Cytosol aminopeptidase, sequence (P28838 whole entry): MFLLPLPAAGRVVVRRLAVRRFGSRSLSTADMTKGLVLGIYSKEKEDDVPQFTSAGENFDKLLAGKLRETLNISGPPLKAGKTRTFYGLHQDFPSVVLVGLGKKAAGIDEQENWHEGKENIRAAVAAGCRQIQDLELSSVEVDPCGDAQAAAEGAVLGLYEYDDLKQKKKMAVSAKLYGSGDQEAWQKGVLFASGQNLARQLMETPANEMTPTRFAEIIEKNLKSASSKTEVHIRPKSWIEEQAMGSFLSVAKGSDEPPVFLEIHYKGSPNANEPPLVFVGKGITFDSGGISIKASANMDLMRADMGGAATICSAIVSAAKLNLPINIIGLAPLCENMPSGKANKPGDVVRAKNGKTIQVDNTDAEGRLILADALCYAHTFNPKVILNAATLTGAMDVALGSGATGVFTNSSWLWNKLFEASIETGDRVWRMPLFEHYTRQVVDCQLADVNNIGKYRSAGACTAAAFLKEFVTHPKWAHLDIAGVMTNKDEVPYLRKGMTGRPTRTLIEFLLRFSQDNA

[12] = target: Collagenase 3 (Homo sapiens, UniProt P45452); assay: Inhibition of MMP-13
[13] = target: Matrix metalloproteinase-14 (Homo sapiens, UniProt P50281); assay: Inhibition of MMP-14
[14] = Half life in pH 7.8 buffer; assay type: physicochemical
[15] = system: Oryctolagus cuniculus; assay: Inhibition of DPP4 activity in rabbit plasma at 1 to 10 mg, iv; assay type: functional
[16] = Drug absorption in healthy human at 10 mg dosed as single daily dose; assay type: ADME, organism-based; conditions: in vivo, read-out: Drug absorption
[17] = system: Homo sapiens; assay: Reduction in systolic blood pressure in hypertensive patient receiving 10 to 40 mg/day, po dosed as single or multiple dose; assay type: functional, Artery; parameters: scale not given: the % may be the effect or the level left
[18] = system: Homo sapiens; assay: Reduction in diastolic blood pressure in hypertensive patient receiving 10 to 40 mg/day, po dosed as single or multiple dose; assay type: functional, Artery; parameters: scale not given: the % may be the effect or the level left
[19] = system: Homo sapiens; assay: Reduction in arterial blood pressure in hypertensive patient receiving 10 to 40 mg/day, po dosed as single or multiple dose; assay type: functional; parameters: scale not given: the % may be the effect or the level left
[20] = AUC in healthy human at 10 mg dosed as single daily dose; assay type: ADME, organism-based; conditions: plasma
[21] = Cmax in healthy human at 10 mg dosed as single daily dose; assay type: ADME, organism-based; parameters: dose 10 mg; conditions: in vivo
[22] = Tmax in healthy human at 10 mg dosed as single daily dose; assay type: ADME, organism-based; conditions: in vivo
[23] = Half life in human at 200 mg, im; assay type: ADME, organism-based; conditions: in vivo
[24] = Half life in Sprague-Dawley rat at 20 mg/kg, sc administered as single dose; assay type: ADME, organism-based; parameters: dose 20 mg/kg, route subcutaneous; conditions: in vivo
[25] = Tmax in Sprague-Dawley rat at 20 mg/kg, sc administered as single dose; assay type: ADME, organism-based; parameters: dose 20 mg/kg, route subcutaneous; conditions: in vivo
[26] = system: Rattus norvegicus; assay: AUC in Sprague-Dawley rat at 20 mg/kg, sc administered as single dose; assay type: ADME, organism-based, Plasma; parameters: dose 20 mg/kg, route subcutaneous; conditions: in vivo
[27] = system: MDA-MB-231; assay: Growth inhibition of human MDA-MB-231 cells; assay type: functional, cell-based
[28] = Inhibition of bacterial APN; parameters: species or system Bacteria
[29] = Inhibition of urease in intact Proteus mirabilis
[30] = system: Rattus norvegicus; assay: Suppression of acute pulmonary transplant rejection in rat at 100 mg/kg at 100 mg/kg followed by 60 mg/kg/day until day 4 after surgery measured on day 5 post initial dose; assay type: functional
[31] = system: Rattus norvegicus; assay: Suppression of acute pulmonary transplant rejection in rat at 100 mg/kg; assay type: functional

T1 sequence (P12821 whole entry, the tested form may be a part): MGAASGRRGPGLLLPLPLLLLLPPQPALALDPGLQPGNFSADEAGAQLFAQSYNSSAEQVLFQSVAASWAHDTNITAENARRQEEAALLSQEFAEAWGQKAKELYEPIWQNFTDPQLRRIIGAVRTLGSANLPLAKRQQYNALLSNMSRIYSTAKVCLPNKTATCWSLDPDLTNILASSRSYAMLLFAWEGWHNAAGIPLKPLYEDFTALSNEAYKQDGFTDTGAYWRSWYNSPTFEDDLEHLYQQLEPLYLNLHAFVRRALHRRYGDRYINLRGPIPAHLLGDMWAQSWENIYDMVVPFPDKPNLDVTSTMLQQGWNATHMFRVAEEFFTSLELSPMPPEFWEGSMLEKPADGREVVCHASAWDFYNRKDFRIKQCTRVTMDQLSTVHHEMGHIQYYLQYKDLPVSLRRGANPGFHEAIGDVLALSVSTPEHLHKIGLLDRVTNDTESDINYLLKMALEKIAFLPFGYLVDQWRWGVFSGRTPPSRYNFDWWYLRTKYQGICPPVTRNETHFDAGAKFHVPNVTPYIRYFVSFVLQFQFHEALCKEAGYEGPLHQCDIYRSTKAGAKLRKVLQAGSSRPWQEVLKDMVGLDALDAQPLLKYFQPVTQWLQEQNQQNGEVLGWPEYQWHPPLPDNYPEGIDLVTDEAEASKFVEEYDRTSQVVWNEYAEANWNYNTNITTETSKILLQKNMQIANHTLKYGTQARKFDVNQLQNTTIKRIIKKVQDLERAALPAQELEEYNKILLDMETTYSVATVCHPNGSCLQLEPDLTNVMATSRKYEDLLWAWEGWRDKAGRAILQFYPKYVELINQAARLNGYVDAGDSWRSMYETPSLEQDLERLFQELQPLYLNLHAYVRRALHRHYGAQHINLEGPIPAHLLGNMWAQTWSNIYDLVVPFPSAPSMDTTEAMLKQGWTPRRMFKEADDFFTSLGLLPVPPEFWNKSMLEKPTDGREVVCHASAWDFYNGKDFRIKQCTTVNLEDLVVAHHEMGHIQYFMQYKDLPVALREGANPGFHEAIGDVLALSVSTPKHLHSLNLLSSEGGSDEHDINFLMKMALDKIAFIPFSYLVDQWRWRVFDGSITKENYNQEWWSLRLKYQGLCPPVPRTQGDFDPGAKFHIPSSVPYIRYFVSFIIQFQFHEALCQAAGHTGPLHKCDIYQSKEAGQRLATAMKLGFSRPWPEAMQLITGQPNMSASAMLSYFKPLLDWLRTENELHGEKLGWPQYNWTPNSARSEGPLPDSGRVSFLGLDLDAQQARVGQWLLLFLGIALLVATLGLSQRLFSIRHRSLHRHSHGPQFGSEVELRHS

Q: For `CN(C)CP(=O)(O)CO` [(DIMETHYLAMINO)METHYL(HYDROXYMETHYL)PHOSPHINIC ACID], which Ki [1] is on record?
A: 5000 nM

Q: For `O=C(N[C@@H](Cc1ccccc1)P(=O)(O)C[C@H](Cc1cc(-c2ccccc2)no1)C(=O)N[C@@H](Cc1ccc(O)cc1)C(=O)O)OCc1ccccc1`, which Ki [2] is on record?
A: 14 nM

Q: With `CC(=O)N[C@@H](CC(=O)O)C(=O)N[C@@H](Cc1ccccc1)P(=O)(O)C[C@@H](C)C(=O)N[C@@H](C)C(N)=O` as the compound, how does the Ki [3] read?
A: 7500 nM

Q: What about the Ki [4] of the same compound?
A: 7 nM

Q: With `O=C(O)[C@@H]1C[C@@H](C2CCCCC2)CN1C(=O)CP(=O)(O)CCCCc1ccccc1` [FOSINOPRILAT] as the compound, how does the clearance [5] read?
A: 25.8 mL/min

Q: What about the Ki [6] of the same compound?
A: 1.5 nM

Q: What about the half-life [7] of the same compound?
A: 12 h

Q: Which results are given for `O=P(O)(O)C(NC1CCCCCC1)P(=O)(O)O` [INCADRONIC ACID]?
A: minimal effective dose [8]: 1 µg/kg; IC50 [9]: 30 nM

Q: With `NCCCC(O)(P(=O)(O)O)P(=O)(O)O` [ALENDRONIC ACID] as the compound, how does the minimal effective dose [8] read?
A: 1 µg/kg

Q: With `CC(C)CC(CP(=O)(O)[C@@H](N)CC(C)C)C(=O)O` (mixture of isomers) as the compound, how does the Ki [10] read?
A: 1020 nM

Q: And the Ki [11]?
A: 65 nM

Q: With `NC(=O)[C@H](Cc1c[nH]c2ccccc12)NC(=O)[C@@H](CP(=O)(O)[C@H](Cc1ccccc1)NC(=O)OCc1ccccc1)c1cc(-c2cccc(Oc3ccccc3)c2)no1` as the compound, how does the Ki [12] read?
A: 28 nM

Q: What about the Ki [13] of the same compound?
A: 5100 nM

Q: For `C[C@H](N)C(=O)N1CCCCC1P(=O)(Oc1ccc(Cl)cc1)Oc1ccc(Cl)cc1` (stereo not given in full), which half-life [14] is on record?
A: > 48 h

Q: With `O=C(N[C@@H](CCc1ccccc1)CP(=O)(O)CC(=O)N1CCC[C@H]1C(=O)O)c1ccccc1` as the compound, how does the IC50 [6] read?
A: 12 nM

Q: With `CP(=O)(O)CNC(=O)CN` as the compound, how does the Ki [1] read?
A: 21000 nM

Q: For `CN(C)CP(C)(=O)O` [(DIMETHYLAMINO)METHYL(METHYL)PHOSPHINIC ACID], which Ki [1] is on record?
A: 620 nM

Q: For `C[C@H](N)C(=O)N1CCCC1P(=O)(Oc1ccc(Cl)cc1)Oc1ccc(Cl)cc1` (stereo not given in full), which half-life [14] is on record?
A: > 48 h

Q: Which “inhibition (INH)” value [15] does the source give for `O=C([C@@H]1CCCN1)N1CCCC1P(=O)(Oc1ccccc1)Oc1ccccc1` (stereo not given in full) here?
A: 80%

Q: Which results are given for `CCC(=O)O[C@@H](O[P@](=O)(CCCCc1ccccc1)CC(=O)N1C[C@H](C2CCCCC2)C[C@H]1C(=O)O)C(C)C` [FOSINOPRIL]?
A: Fa [16]: 30%; Activity [17]: 10%; Activity [18]: 10%; Activity [19]: 10%; AUC [20]: 1000 ng·h/mL; Cmax [21]: 100 ng/mL; Tmax [22]: 3 h

Q: Which results are given for `O=C(N[C@@H](Cc1ccccc1)P(=O)(O)C1CCC[C@H]1C(=O)N[C@@H](Cc1c[nH]c2ccccc12)C(=O)O)OCc1ccccc1` (stereo not given in full)?
A: Ki [3]: 3 nM; Ki [4]: 10000 nM

Q: Which results are given for `C[C@H](N)C(=O)N[C@@H](C)P(=O)(O)O` [ALAFOSFALIN]?
A: half-life [23]: 1 h; half-life [24]: 0.333 h; Tmax [25]: 0.333 h; AUC [26]: 25000 ng·h/mL

Q: For `NCP(=O)(O)CO` [AMINOMETHYL(HYDROXYMETHYL)PHOSPHINIC ACID], which Ki [1] is on record?
A: 95000 nM

Q: Which IC50 [27] does the source give for `CCCCCCCCCCOc1ccc[n+](CC(P(=O)([O-])O)P(=O)(O)O)c1` (stereo not given) here?
A: 100 nM

Q: With `O.O=P(O)(O)C(O)(Cn1ccnc1)P(=O)(O)O` [ZOLEDRONIC ACID] as the compound, how does the minimal effective dose [8] read?
A: 0.1 µg/kg

Q: Which minimal effective dose [8] does the source give for `O=P(O)(O)C(O)(Cc1cccnc1)P(=O)(O)O` [RISEDRONIC ACID] here?
A: 0.3 µg/kg

Q: Which Ki [1] does the source give for `CP(O)(=S)CNC(=O)CNC(=O)OCc1ccccc1` (stereo not given) here?
A: 170 nM

Q: With `CC(C)CC(N)P(=O)(O)O[C@@H](CC(C)C)C(=O)O` (stereo not given in full) as the compound, how does the Ki [11] read?
A: 58000 nM

Q: Which Ki [28] does the source give for `C[C@H](N)P(=O)(O)C[C@@H](Cc1ccccc1)C(=O)N[C@@H](Cc1ccccc1)C(=O)O` here?
A: 1.5 nM

Q: With `CCOC(=O)CNC(=O)c1ccc(OP(=O)(Oc2ccc(C(=O)NCC(=O)OCC)cc2)C2CCCN2C(=O)[C@@H]2CCCN2)cc1` (stereo not given in full) as the compound, how does the half-life [14] read?
A: 0.583 h

Q: Which IC50 [29] does the source give for `CNCP(C)(=O)O` [METHYL((METHYLAMINO)METHYL)PHOSPHINIC ACID] here?
A: 36000 nM

Q: What about the Ki [1] of the same compound?
A: 18000 nM

Q: For `CNCP(=O)(O)CO` [HYDROXYMETHYL((METHYLAMINO)METHYL)PHOSPHINIC ACID], which Ki [1] is on record?
A: 430 nM

Q: For `CC(=O)Nc1ccc(OP(=O)(Oc2ccc(NC(C)=O)cc2)C2CCCN2C(=O)[C@@H]2CCCN2)cc1` (stereo not given in full), which half-life [14] is on record?
A: 5.33 h

Q: What about the Activity [30] of the same compound?
A: >90%

Q: What about the Activity [31] of the same compound?
A: >95%

Q: Which minimal effective dose [8] does the source give for `NCCC(O)(P(=O)(O)O)P(=O)(O)O` [PAMIDRONIC ACID] here?
A: 30 µg/kg

Q: Which IC50 [29] does the source give for `CC(=O)NO` [ACETOHYDROXAMIC ACID] here?
A: 64400 nM

Q: Which Ki [1] does the source give for `CP(=O)(O)CN` [AMINOMETHYL(METHYL)PHOSPHINIC ACID] here?
A: 340000 nM
